Source: ChEMBL document CHEMBL5029190, “A Series of Pyrazole Analogs Binding to KRASG12C as Potential Cancer Treatment” (ACS Med Chem Lett, 2022)
pIC50: −log10 of the molar value.

Target: GTPase KRas (Homo sapiens, UniProt P01116, G12C)
Assay: Inhibition of human KRAS G12C mutant incubated for 2 hrs by scintillation counter based covalent competition assay

## C=CC(=O)N1CC2(CC(n3nc(-c4ccc5c(c4)CCN5C(=O)CN4CC[C@H](F)C4)c(-c4c(Cl)c(C)cc5[nH]ncc45)c3C)C2)C1 (stereo in doubt; 76a)
  pIC50: 7.82

## C=CC(=O)N1CC2(CC(n3nc(-c4ccc5c(c4)CCN5C(=O)CN4CC[C@H](F)C4)c(-c4c(Cl)c(C)cc5[nH]ncc45)c3C)C2)C1 (stereo in doubt; 76b)
  pIC50: 4.88
